We go through one substance from patent US9918981B2, “Liquid buprenorphine formulations” (Insys Development Company, Inc., priority 2013, dated 2018).

The data set in a line: Bioavailability of buprenorphine sublingual spray vs Buprenex intramuscular and intravenous injection, crossover study. The conditions noted are these: for AUC(0-t) / AUC(inf) / Cmax / Tmax / t½ / λz: overnight fast.
[1] abbreviates: Intramuscular 0.3 mg (Buprenex injection).
Setting [2] is: Intravenous 0.3 mg (Buprenex bolus injection).
Where [3] appears, read: after sublingual administration (1 mg spray).

Source text: This was an open-label, 3-treatment, 3-period, 6-sequence, single-dose, randomized crossover study. Eighteen healthy male and female volunteers were randomly assigned to 1 of 6 treatment sequences. Dosing occurred after an overnight fast and there was a minimum 14-day washout between the dosing in two periods.

As a reminder, the AUC(0-t) is the area under the concentration-time curve up to a stated or last time point. A higher AUC(0-t) goes with more exposure. By Cmax is commonly meant the maximum level reached in the sampled fluid or tissue. A word on the Tmax: it is the time at which the peak concentration occurs. Usually t½ stands for the time needed for the level to fall by half in the phase considered. Consider Buprenorphine, for which, under setting [1], the “AUC(0-t)” value came out at 4.97 ± 0.90 ng·h/mL, the “AUC(inf)” value is 5.50 ± 0.83 ng·h/mL, the peak concentration (Cmax) is 1.73 ± 1.08 ng/mL and the Tmax worked out at 0.17 h. Under setting [1], this substance had a t½ of 12.0 ± 5.31 h and a λz of 0.0655 ± 0.0210. Under setting [2], the “AUC(0-t)” value came to 5.09 ± 1.01 ng·h/mL, the “AUC(inf)” value came to 5.51 ± 1.21 ng·h/mL, the peak concentration (Cmax) is listed as 3.95 ± 3.66 ng/mL and the Tmax is listed as 0.083 h. Under setting [2], this substance displayed a t½ of 9.37 ± 6.49 h and a λz of 0.1028 ± 0.0641. For the same substance, under setting [3], the “absolute bioavailability based on AUC(0-t)” value is 41.03% and the “absolute bioavailability based on AUC(inf)” value is on record as 42.57%.
